This is an account of results in patent publication US12612412B2, “Antiviral heterocyclic compounds” (Enanta Pharmaceuticals, Inc., priority 2021, dated 2026).

Where two headings read alike, the source gives them in different places. A value given as a limit tells only on which side of the number the result lay.

In test [1] the test system is genotype A, "Long" strain RSV. As to the kind of experiment: RSV-A assay (CPE protection in Hep-2 cells, ATPlite readout). The conditions noted are these: human respiratory syncytial virus, MOI 0.1, CPE protection. Type of test: cell-based, Human respiratory syncytial virus (HRSV). In short, it runs like this: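 Hep-2 cells (8,000/well) were treated with 2-fold serial compound dilutions in duplicate and infected with RSV at MOI 0.1. After 5 days, protection from cytopathic effect was measured as cell viability by ATPlite luminescence, and EC50 values were derived.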

The test system of test [2] is HMPV clinical isolate TN/1501/A1. As to the kind of experiment: HMPV antiviral assay Method-B (clinical isolate TN/1501/A1 in LLC-MK2 cells, ATP-Lite readout). Type of test: cell-based, Human metapneumovirus (HMPV). The conditions noted are these: human metapneumovirus, LLC-MK2, 144 h, hMPV WT1501 (clinical isolate TN/1501/A1), 6 days. In outline:
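LLC-MK2 cells infected in suspension with TN/1501/A1 at MOI 0.014 in serum-free medium with 2 μg/mL TPCK-trypsin (final), incubated 6 days at 37° C. Compounds tested in duplicate, 10-point 3-fold dilutions from 10 μM. Cell health read by ATP-Lite luminescence, normalised to virus-only and cells-only controls; EC50 by four-parameter logistic fit.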

[3] abbreviates: genotype A “Long” strain RSV, read-out: Human RSV-A (“Long”).
Where [4] appears, read: RSV-A Long strain, read-out: Human RSV-A (“Long”) EC50.

As to `Cc1cnc2c(OC(F)F)cc(C(=O)NC[C@](O)(c3cc4c(c(-c5ccc(F)c(C(F)(F)F)c5)n3)OC[C@]4(C)C(N)=O)C3(F)CC3)cc2c1` [Example 750], the EC50 is less than 200 nM in test [1] (setting [3]) and less than 500 nM in test [2].

`COc1cc(C(=O)NC[C@](O)(c2cc3c(c(-c4ccc(F)c(Cl)c4F)n2)OC[C@]3(C)C(N)=O)C2CC2)cc2cn(C(F)F)nc12` [Example 556]: the EC50 in test [1] (setting [3]) was less than 200 nM; in test [2], less than 500 nM.

Consider `COc1cc(C(=O)NC[C@](O)(c2cc3c(c(-c4ccc(F)c(F)c4Cl)n2)OC[C@]3(C)C(N)=O)C2CC2)cc2ccc(C)nc12` [Example 1196], for which the EC50 in test [1] (setting [4]) is less than 200 nM; in test [2], more than 500 nM.

In the case of `COc1cc(C(=O)NC[C@](O)(c2cc3c(c(-c4ccc(F)cc4)n2)OC[C@]3(C(N)=O)C(F)F)C(F)(F)F)cc2cc(Cl)c(C)nc12` [Example 1000], the EC50 in test [1] (setting [4]) is less than 200 nM; in test [2] it was more than 500 nM.

On to `Cc1cnc2c(OCC(F)F)cc(C(=O)NC[C@](O)(c3cc4c(c(-c5ccc(F)c(Cl)c5)n3)OC[C@]4(C)C(N)=O)C3CC3)cc2c1` [Example 499], for which the EC50 in test [1] (setting [3]) was less than 200 nM; in test [2], less than 500 nM.

On to `COc1cc(C(=O)NC[C@](O)(c2cc3c(c(-c4ccc5c(c4)OC(F)(F)C(F)(F)O5)n2)OC[C@]3(C)C(N)=O)C(F)(F)F)cc2cn(C3CC3)nc12` [Example 1218], for which the EC50 in test [1] (setting [4]) was less than 200 nM; in test [2], more than 500 nM.

In the case of `NC(=O)[C@]1(CF)COc2c1cc([C@@](O)(CNC(=O)c1cc(OC3CC3)c3ncccc3c1)C1CC1)nc2-c1ccc(F)cc1` [Example 1053], the values for the EC50 in test [1] (setting [4]) and in test [2] were more than 200 nM and more than 500 nM, respectively.

Turning to `COc1cc(C(=O)NC[C@](O)(c2cc3c(c(-c4ccc(Cl)c(F)c4F)n2)OC[C@]3(C)C(N)=O)C2CC2)cc2cn(C3CC3)nc12` [Example 683], the EC50 in test [1] (setting [3]) is less than 200 nM; in test [2] it was less than 500 nM.

For the compound `COc1cc(C(=O)NC[C@](O)(c2cc3c(c(-c4cc(Cl)c(F)cc4F)n2)OC[C@]3(C)C(N)=O)C(F)(F)F)cc2cn(C3(F)CC3)nc12` [Example 613], the EC50 in test [1] (setting [3]) is less than 200 nM; in test [2], less than 500 nM.

On to `COc1cc(C(=O)NC[C@](O)(c2cc3c(c(-c4cc(Cl)c(F)cc4F)n2)OC[C@]3(C)C(N)=O)C2(F)CC2)cc2cc(Br)c(C)nc12` [Example 1127], for which the EC50 in test [1] (setting [4]) is less than 200 nM; in test [2] it was less than 500 nM.

Consider `C[C@]1(C(N)=O)COc2c1cc([C@@](O)(CNC(=O)c1cc(Cl)c3nn(C(F)F)cc3c1)C1CC1)nc2-c1ccc(F)c(Cl)c1F` [Example 570], for which the EC50 in test [1] (setting [3]) was less than 200 nM; in test [2] it was less than 500 nM.

`COc1cc(C(=O)NC[C@](O)(c2nc(-c3ccc(F)cc3)c3c(c2F)[C@@](C)(C(N)=O)CO3)C(F)(F)F)cc2cn(C(F)F)nc12` [Example 853]: the EC50 in test [1] (setting [4]) was less than 200 nM; in test [2] it was less than 500 nM.

Take `COc1cc(C(=O)NC[C@](O)(c2cc3c(c(-c4cc(F)ccc4F)n2)OC[C@]3(C)C(N)=O)C(F)(F)F)cc2cn(C3CC3)nc12` [Example 992]: the EC50 was less than 200 nM in test [1] (setting [4]) and less than 500 nM in test [2].

Regarding `C[C@]1(C(N)=O)COc2c1cc([C@@](O)(CNC(=O)c1cc(OC3CC3)c3nc(Cl)ccc3c1)C(F)(F)F)nc2-c1ccc(F)cc1` [Example 1192], the EC50 was less than 200 nM in test [1] (setting [4]) and more than 500 nM in test [2].

Turning to `COc1cc(C(=O)NC[C@](O)(c2cc3c(c(-c4ccc5c(c4)OCCO5)n2)OC[C@]3(C)C(N)=O)C(F)(F)F)cc2cn(C3CC3)nc12` [Example 973], the EC50 in test [1] (setting [4]) was more than 200 nM; in test [2], more than 500 nM.

In the case of `C[C@]1(C(N)=O)COc2c1cc([C@@](O)(CNC(=O)c1cc(OC3CC3)n3nc(C4CC4)cc3c1)C(F)(F)F)nc2-c1ccc2c(c1)OC(F)(F)O2` [Example 504], the values for the EC50 in test [1] (setting [3]) and in test [2] were less than 200 nM and less than 500 nM, respectively.

For `COc1cc(C(=O)NC[C@](O)(c2cc3c(c(-c4cccc(F)c4)n2)OC[C@]3(C)C(N)=O)C(F)(F)F)cc2cn(C3CC3)nc12` [Example 912], the EC50 in test [1] (setting [4]) was less than 200 nM; in test [2] it was less than 500 nM.

Take `COc1cc(C(=O)NCC(O)(c2cc3c(c(-c4ccc(F)c(OC(F)F)c4)n2)OC[C@]3(C)C(N)=O)C(F)(F)F)cc2cn(C3CC3)nc12` (some centres unmarked) [Example 909]: the EC50 in test [1] (setting [4]) was less than 200 nM; in test [2] it was more than 500 nM.

`C[C@]1(C(N)=O)COc2c1cc([C@@](O)(CNC(=O)c1cc(Cl)c3nn(C4CC4)cc3c1)C(F)(F)F)nc2-c1ccc(F)c(F)c1Cl` [Example 780]: the EC50 is less than 200 nM in test [1] (setting [3]) and less than 500 nM in test [2].

In the case of `COc1cc(C(=O)NC[C@](O)(c2cc3c(c(-c4cc(F)c(F)c(Cl)c4)n2)OC[C@]3(C)C(N)=O)C2CC2)cc2cc(Cl)c(C)nc12` [Example 786], the EC50 in test [1] (setting [3]) was less than 200 nM; in test [2], less than 500 nM.

For `COc1cc(C(=O)NC[C@](O)(c2cc3c(c(-c4ccc(F)c(Cl)c4F)n2)OC[C@]3(C)C(N)=O)C(F)(F)F)cc2cc(Cl)c(C)nc12` [Example 552], the EC50 in test [1] (setting [3]) is less than 200 nM; in test [2] it was less than 500 nM.

With `Cc1nc2c(OC3CC3)cc(C(=O)NC[C@](O)(c3cc4c(c(-c5ccc6c(c5)OC(F)(F)O6)n3)OC[C@]4(C)C(N)=O)C3CC3)cc2cc1Cl` [Example 540], the values for the EC50 in test [1] (setting [3]) and in test [2] were less than 200 nM and less than 500 nM, respectively.

Take `C[C@]1(C(N)=O)COc2c1cc([C@@](O)(CNC(=O)c1cc(OC3CC3)c3nc(Cl)ccc3c1)C1CC1)nc2-c1ccc(F)c(F)c1Cl` [Example 1194]: the EC50 in test [1] (setting [4]) is less than 200 nM; in test [2], more than 500 nM.

For `C[C@]1(C(N)=O)COc2c1cc([C@@](O)(CNC(=O)c1cc(Cl)c3nn(C4CC4)cc3c1)C1CC1)nc2-c1cc(Br)c(F)cc1F` [Example 1096], the EC50 in test [1] (setting [4]) is less than 200 nM; in test [2] it was less than 500 nM.

With `COc1cc(C(=O)NC[C@](O)(c2cc3c(c(-c4ccc(C(F)F)s4)n2)OC[C@]3(C)C(N)=O)C(F)(F)F)cc2cn(C3CC3)nc12` [Example 948], the EC50 in test [1] (setting [4]) is less than 200 nM; in test [2], more than 500 nM.

Turning to `C[C@]1(C(N)=O)COc2c1cc([C@@](O)(CNC(=O)c1cc(OCC3CC3)c3nn(C4(F)CC4)cc3c1)C(F)(F)F)nc2-c1cc(Cl)c(F)cc1F` [Example 616], the EC50 in test [1] (setting [3]) was less than 200 nM; in test [2], less than 500 nM.

Take `COc1cc(C(=O)NC[C@](O)(c2cc3c(c(-c4ccc(F)c(Cl)c4F)n2)OC[C@]3(C)C(N)=O)C2CC2)cc2cc(Br)c(Cl)nc12` [Example 1185]: the EC50 in test [1] (setting [4]) is less than 200 nM; in test [2], less than 500 nM.

On to `Cc1nn(-c2ccccc2)cc1C(=O)NC[C@](O)(c1cc2c(c(-c3ccc(F)cc3)n1)OC[C@]2(C)C(N)=O)C1CC1` [Example 486], for which the EC50 in test [1] (setting [3]) was less than 200 nM; in test [2] it was more than 500 nM.

Turning to `COc1cc(C(=O)NC[C@](O)(c2cc3c(c(-c4ccc5c(c4)OC(F)(F)O5)n2)OC[C@@]3(C(N)=O)C(F)F)C2CC2)cc2cn(C3(F)CC3)nc12` [Example 1042], the figures for the EC50 in test [1] (setting [4]) and in test [2] were less than 200 nM and less than 500 nM, respectively.

Take `COc1cc(C(=O)NC[C@](O)(c2cc3c(c(-c4cc(F)c(F)cc4F)n2)OC[C@]3(C)C(N)=O)C2CC2)cc2cn(C3(F)CC3)nc12` [Example 1147]: the results for the EC50 in test [1] (setting [4]) and in test [2] were less than 200 nM and less than 500 nM, respectively.

In the case of `COc1cc(C(=O)NC[C@](O)(c2cc3c(c(-c4ccc(F)c(F)c4)n2)OC[C@]3(C)C(N)=O)C(F)(F)F)cc2cn(C3CC3)nc12` [Example 985], the results for the EC50 in test [1] (setting [4]) and in test [2] were less than 200 nM and less than 500 nM, respectively.

Consider `C[C@]1(C(N)=O)COc2c1cc([C@@](O)(CNC(=O)c1ccc3nn(C4(F)CC4)cc3c1)C(F)(F)F)nc2-c1ccc(F)cc1` [Example 832], for which the EC50 in test [1] (setting [4]) is less than 200 nM; in test [2], more than 500 nM.

Consider `Cc1cnc2c(Cl)cc(C(=O)NC[C@](O)(c3cc4c(c(-c5ccc(F)cc5)n3)OC[C@]4(C)C(N)=O)C3(F)CC3)cc2c1` [Example 738], for which the EC50 in test [1] (setting [3]) is less than 200 nM; in test [2], less than 500 nM.

As to `COc1cc(C(=O)NC[C@](O)(c2cc3c(c(-c4csc5c(F)cccc45)n2)OC[C@]3(C)C(N)=O)C(F)(F)F)cc2cn(C3(F)CC3)nc12` [Example 599], the EC50 in test [1] (setting [3]) was less than 200 nM; in test [2], less than 500 nM.

For `COc1cc(C(=O)NC[C@](O)(c2cc3c(c(-c4ccc(F)c(Cl)c4)n2)OC[C@]3(C)C(N)=O)C2CC2)ccc1OC1CC1` [Example 811], the results for the EC50 in test [1] (setting [3]) and in test [2] were less than 200 nM and less than 500 nM, respectively.

With `COc1cc(C(=O)NC[C@](O)(c2cc3c(c(-c4cccc(F)c4Cl)n2)OC[C@]3(C)C(N)=O)C2CC2)cc2cc(Br)cnc12` [Example 1124], the figures for the EC50 in test [1] (setting [4]) and in test [2] were less than 200 nM and less than 500 nM, respectively.

Regarding `CNC(=O)[C@@]1(C)COc2c1cc([C@@](O)(CNC(=O)c1cc(OC)c3nn(C(F)F)cc3c1)C(F)(F)F)nc2-c1ccc(F)cc1` [Example 1191], the EC50 in test [1] (setting [4]) was less than 200 nM; in test [2], less than 500 nM.

With `COc1cc(C(=O)NC[C@](O)(c2cc3c(c(-c4ccc(F)c(Cl)c4F)n2)OC[C@]3(C)C(N)=O)C2(F)CC2)cc2cn(C3CC3)nc12` [Example 752], the EC50 was less than 200 nM in test [1] (setting [3]) and less than 500 nM in test [2].

In the case of `COc1cc(C(=O)NC[C@](O)(c2cc3c(c(-c4ccc(F)c(Cl)c4)n2)OCC3(CF)C(N)=O)C(F)(F)F)cc2cn(C3CC3)nc12` (some centres unmarked) [Example 1050], the EC50 was less than 200 nM in test [1] (setting [4]) and less than 500 nM in test [2].

As to `C[C@]1(C(N)=O)COc2c1cc([C@@](O)(CNC(=O)c1ccc3nn(C4CC4)cc3c1)C(F)(F)F)nc2-c1ccc2c(c1)OC(F)(F)O2` [Example 819], the EC50 in test [1] (setting [3]) is less than 200 nM; in test [2], less than 500 nM.
